US20150353495A1 (PORTOLA PHARMACEUTICALS, INC., priority 2010, published 2015)

What was measured:
Format in all cases: biochemical
JAK3 = biological target: T1, JAK3 (Homo sapiens, UniProt P52333); assay: Z'-LYTE kinase assay JAK3
T1 construct: 5 μl of catalytic domain recombinant Kinase enzyme+Tyr peptide substrate (Invitrogen, CA); purchased Invitrogen
How it was run: (§1)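 Catalytic-domain recombinant kinase was incubated with Tyr6 FRET peptide, ATP and compound (1% DMSO final) for 1 h at room temperature. Protease development followed for 1 h, cleaving only non-phosphorylated peptide. Inhibition of phosphorylation was read as coumarin/fluorescein FRET fluorescence.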

JAK1 = biological target: T2, JAK1 (Homo sapiens, UniProt P23458); assay: Z'-LYTE kinase assay JAK1
T2 construct: 5 μl of catalytic domain recombinant Kinase enzyme+Tyr peptide substrate (Invitrogen, CA); purchased Invitrogen
How it was run: as §1

TYK2 = biological target: T3, TYK2 (Homo sapiens, UniProt P29597); assay: Z'-LYTE kinase assay TYK2
T3 construct: 5 μl of catalytic domain recombinant Kinase enzyme+Tyr peptide substrate (Invitrogen, CA); purchased Invitrogen
T3 sequence (P29597 897-1176 limits assumed): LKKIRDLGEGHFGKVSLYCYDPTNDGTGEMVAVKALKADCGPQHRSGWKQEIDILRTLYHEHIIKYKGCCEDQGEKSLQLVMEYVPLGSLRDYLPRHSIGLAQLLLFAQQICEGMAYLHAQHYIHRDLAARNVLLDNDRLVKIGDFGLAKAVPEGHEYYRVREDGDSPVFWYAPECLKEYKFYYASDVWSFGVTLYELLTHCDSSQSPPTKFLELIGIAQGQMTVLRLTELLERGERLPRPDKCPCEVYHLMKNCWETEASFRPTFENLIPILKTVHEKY
Description: JAK and TYK2 tyrosine phosphorylation activity is measured using the Z′-LYTE™ Technology developed by Invitrogen Corporation (Carlsbad, Calif.). For JAK1, JAK2 and JAK3 the Z′-LYTE™ Kinase Assay Kit-Tyr6 Peptide (part number PV4122) was used. For TYK2 the Z′-LYTE™ Kinase Assay Kit-Tyr6 Peptide (part number PV3192) was used. The Z′-LYTE™ biochemical assay employs a fluorescence resonance energy transfer (FRET) coupled-enzyme format and is based on the differential sensitivity of phosphorylated and non-phosphorylated peptides to proteolitic cleavage. The assay uses a synthetic peptide substrate that is labelled with a donor fluorophore (coumarin) and an acceptor fluorophore (fluorescein) that make up a FRET pair. In the primary reaction (the Kinase Reaction), the kinase transfers the γ-phosphate of ATP to a single tyrosine residue on the substrate, while the presence of a kinase inhibitor in the primary reaction suppresses phosphorylation. In the secondary reaction (the Development Reaction), a site-specific protease (the Development Reagent) is added. The development buffer quenches the Kinase Reaction, while the protease recognizes and cleaves non-phosphorylated Z′-LYTE™ peptide substrate. Cleavage disrupts FRET between the donor and acceptor fluorophores on the non-phosphoryleted substrate, while uncleaved, phosphorylated substrate maintains FRET.
To test the ability of candidate molecules to inhibit JAK tyrosine phosphorylation activity, molecules are reconstituted in 100% DMSO and serially diluted 1:10 in polypropylene v-bottom microtiter plates. The candidate molecules are then diluted 1:25 into kinase buffer and 2.5 μl transferred into duplicate wells of a 384 well low volume black microtiter assay plate (Corning, USA). The final DMSO concentration in the assay is 1%. The kinase reaction contains 2.5 μl of a candidate molecule, 5 μl of catalytic domain recombinant Kinase enzyme+Tyr peptide substrate (Invitrogen, CA) and 2.5 μl ATP (Invitrogen, CA). The kinase reaction is allowed to procede for 1 hour at room temperature. The protease reaction is initiated by the addition of 5 μl Development Reagent (Invitrogen, CA). After 1 hour incubation at room temperature the fluorescence is measured using a FlexStation plate reader (Molecular Devices, Sunnyvale, Calif.). The reader settings used are as follows: Fluorescence mode, endpoint, top read, excitation 400 nm, emission 445 nm and 520 nm, Auto Cutoff 435 nm and 515 nm, PMT sensitivity high, 6 reads per well Inhibition of JAK kinase activity is calculated as the percent phosphorylation of substrate in the presence of inhibitor compared to the percent phosphorylation of substrate in the absence of inhibitor. IC50's were derived using Xlfit 4.3 (IDBS, UK), 4 parameter logistic model 205: Y=(A+4B-A)/(1+((C/x)AD)))).

JAK2 = biological target: T4, JAK2 (Homo sapiens, UniProt O60674); assay: Z'-LYTE kinase assay JAK2
T4 construct: 5 μl of catalytic domain recombinant Kinase enzyme+Tyr peptide substrate (Invitrogen, CA); purchased Invitrogen
How it was run: as §1

T1 sequence (P52333 822-1111 limits assumed): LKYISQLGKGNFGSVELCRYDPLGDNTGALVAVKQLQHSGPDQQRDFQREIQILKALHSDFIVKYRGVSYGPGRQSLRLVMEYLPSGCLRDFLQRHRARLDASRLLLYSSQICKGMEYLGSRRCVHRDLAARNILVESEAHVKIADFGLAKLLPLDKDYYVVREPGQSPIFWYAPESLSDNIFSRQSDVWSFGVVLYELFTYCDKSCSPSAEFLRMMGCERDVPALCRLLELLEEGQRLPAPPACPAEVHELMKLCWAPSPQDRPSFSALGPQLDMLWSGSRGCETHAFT
T4 sequence (O60674 849-1124 limits assumed): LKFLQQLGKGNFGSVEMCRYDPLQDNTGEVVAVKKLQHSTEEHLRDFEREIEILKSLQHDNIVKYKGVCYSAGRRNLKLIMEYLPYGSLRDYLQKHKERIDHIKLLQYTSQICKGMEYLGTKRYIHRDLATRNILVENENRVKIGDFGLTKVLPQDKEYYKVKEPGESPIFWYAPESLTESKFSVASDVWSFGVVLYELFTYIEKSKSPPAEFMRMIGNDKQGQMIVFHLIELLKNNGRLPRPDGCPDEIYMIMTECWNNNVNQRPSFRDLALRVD
T2 sequence (P23458 875-1153 limits assumed): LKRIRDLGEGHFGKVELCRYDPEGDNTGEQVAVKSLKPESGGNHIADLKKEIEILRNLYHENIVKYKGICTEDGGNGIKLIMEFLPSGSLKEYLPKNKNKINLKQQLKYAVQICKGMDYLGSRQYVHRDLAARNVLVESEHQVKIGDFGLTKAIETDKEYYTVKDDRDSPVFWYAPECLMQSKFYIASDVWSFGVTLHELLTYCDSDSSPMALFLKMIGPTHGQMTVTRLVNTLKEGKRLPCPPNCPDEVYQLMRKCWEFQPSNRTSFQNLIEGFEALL

IC50 (JAK3) [µM]	IC50 (JAK1) [µM]	IC50 (TYK2) [µM]	IC50 (JAK2) [µM]	SMILES
0.001 to 0.01	> 1	> 1	0.01 to 0.1	CCC(=O)N1CCC(c2ccc(Nc3cc(NCc4cc(F)cc(F)c4)c(C(N)=O)cn3)cc2)CC1 [Example 195, 4-(3,5-difluorobenzylamino)-6-(4-(1-propionylpiperidin-4-yl)phenylamino)nicotinamide]
0.001 to 0.01	0.1 to 1	0.1 to 1	0.01 to 0.1	CCC(=O)N1CCC(c2ccc(Nc3cc(NCc4cccc(F)c4F)c(C(N)=O)cn3)cc2)CC1 [Example 196, 4-(2,3-difluorobenzylamino)-6-(4-(1-propionylpiperidin-4-yl)phenylamino)nicotinamide]
0.001 to 0.01	0.1 to 1	0.1 to 1	0.1 to 1	CCC(=O)N1CCC(c2ccc(Nc3cc(NCc4cccs4)c(C(N)=O)cn3)cc2)CC1 [Example 197, 6-(4-(1-propionylpiperidin-4-yl)phenylamino)-4-(thiophen-2-ylmethylamino)nicotinamide]
0.001 to 0.01	> 1	0.1 to 1	0.1 to 1	CCC(=O)N1CCC(c2ccc(Nc3cc(NCc4ccccc4)c(C(N)=O)cn3)cc2)CC1 [Example 198, 4-(benzylamino)-6-(4-(1-propionylpiperidin-4-yl)phenylamino)nicotinamide]
0.01 to 0.1	> 1	> 1	0.1 to 1	CCC(=O)N1CCC(c2ccc(Nc3cc(N[C@H](C)c4ccccc4)c(C(N)=O)cn3)cc2)CC1 [Example 199, (R)-4-(1-phenylethylamino)-6-(4-(1-propionylpiperidin-4-yl)phenylamino)nicotinamide]
0.001 to 0.01	0.1 to 1	0.01 to 0.1	0.1 to 1	CC(=O)Nc1cccc(Nc2cc(NCc3cccs3)c(C(N)=O)cn2)c1 [Example 222, 6-(3-acetamidophenylamino)-4-(thiophen-2-ylmethylamino)nicotinamide]
0.1 to 1	> 1	0.1 to 1	> 1	CC(=O)N1CCN(c2ccc(Nc3cc(NC(C)C)c(C(N)=O)cn3)cc2)CC1 [Example 234, 6-(4-(4-acetylpiperazin-1-yl)phenylamino)-4-(isopropylamino)nicotinamide]
0.01 to 0.1	0.1 to 1	0.01 to 0.1	0.1 to 1	CC(=O)N1CCN(c2ccc(Nc3cc(NCC(C)C)c(C(N)=O)cn3)cc2)CC1 [Example 235, 6-(4-(4-acetylpiperazin-1-yl)phenylamino)-4-(isobutylamino)nicotinamide]
0.1 to 1	> 1	0.1 to 1	0.1 to 1	CC(=O)N1CCN(c2ccc(Nc3cc(NCC4CC4)c(C(N)=O)cn3)cc2)CC1 [Example 238, 6-(4-(4-acetylpiperazin-1-yl)phenylamino)-4-(cyclopropylmethylamino)nicotinamide]
0.01 to 0.1	0.1 to 1	0.01 to 0.1	0.1 to 1	CC(=O)N1CCN(c2ccc(Nc3cc(NC4CCCC4)c(C(N)=O)cn3)cc2)CC1 [Example 239, 6-(4-(4-acetylpiperazin-1-yl)phenylamino)-4-(cyclopentylamino)nicotinamide]
0.01 to 0.1	0.1 to 1	0.01 to 0.1	0.1 to 1	CC(=O)N1CCN(c2ccc(Nc3cc(NCC4CCC4)c(C(N)=O)cn3)cc2)CC1 [Example 243, 6-(4-(4-acetylpiperazin-1-yl)phenylamino)-4-(cyclobutylmethylamino)nicotinamide]
0.01 to 0.1	> 1	> 1	0.1 to 1	CC(=O)N1CCN(c2ccc(Nc3cc(NCc4ccc(F)cc4)c(C(N)=O)cn3)cc2)CC1 [Example 252, 6-(4-(4-acetylpiperazin-1-yl)phenylamino)-4-(4-fluorobenzylamino)nicotinamide]
0.1 to 1	> 1	0.1 to 1	0.1 to 1	CC(=O)N1CCN(c2ccc(Nc3cc(NC4Cc5ccccc5C4)c(C(N)=O)cn3)cc2)CC1 [Example 253, 6-(4-(4-acetylpiperazin-1-yl)phenylamino)-4-(2,3-dihydro-1H-inden-2-ylamino)nicotinamide]
0.01 to 0.1	> 1	> 1	0.1 to 1	CC(=O)N1CCN(c2ccc(Nc3cc(NCc4ccc5c(c4)OCO5)c(C(N)=O)cn3)cc2)CC1 [Example 254, 6-(4-(4-acetylpiperazin-1-yl)phenylamino)-4-(benzo[d][1,3]dioxol-5-ylmethylamino)nicotinamide]
0.01 to 0.1	> 1	0.1 to 1	0.1 to 1	CC(=O)N1CCC[C@H](CNc2cc(Nc3ccc(C(=O)N4CCCC4)cc3)ncc2C(N)=O)C1 [Example 265, (R)-4-((1-acetylpiperidin-3-yl)methylamino)-6-(4-(pyrrolidine-1-carbonyl)phenylamino)nicotinamide]
0.001 to 0.01	0.1 to 1	0.1 to 1	0.01 to 0.1	Cc1cc(Nc2cc(NCc3cncc(F)c3)c(C(N)=O)cn2)ccc1C(=O)N(C)C [Example 297]
0.01 to 0.1	> 1	> 1	0.1 to 1	NC(=O)c1cnc(Nc2cccc(OCCN3CCCC3)c2)cc1NC1(c2ccccc2)CC1 [Example 363, 4-(1-phenylcyclopropylamino)-6-(3-(2-(pyrrolidin-1-yl)ethoxy)phenylamino)nicotinamide]
0.01 to 0.1	> 1	> 1	0.1 to 1	CS(=O)(=O)N1CCN(c2ccc(Nc3cc(NC4(c5ccccc5)CC4)c(C(N)=O)cn3)cc2)CC1 [Example 364, 6-(4-(4-(methylsufonly)piperazin-1-yl)phenylamino)-4-(1-phenylcyclopropylamino)nicotinamide]
0.01 to 0.1	> 1	> 1	> 1	CN(C)C(=O)COc1cccc(Nc2cc(NC3(c4ccccc4)CC3)c(C(N)=O)cn2)c1 [Example 365, 6-(3-(2-(dimethylamino)-2-oxoethoxy)phenylamino)-4-(1-phenylcyclopropylamino)nicotinamide]
0.01 to 0.1	> 1	> 1	0.1 to 1	CN(C)C(=O)COc1ccc(Nc2cc(NC3(c4ccccc4)CC3)c(C(N)=O)cn2)cc1 [Example 366, 6-(4-(2-(dimethylamino)-2-oxoethoxy)phenylamino)-4-(1-phenylcyclopropylamino)nicotinamide]
0.01 to 0.1	> 1	> 1	0.1 to 1	NC(=O)c1cnc(Nc2cccc(N3CCNCC3)c2)cc1NC1(c2ccccc2)CC1 [Example 367, 4-(1-phenylcyclopropylamino)-6-(3-(piperazin-1-yl)phenylamino)nicotinamide]
0.1 to 1	> 1	> 1	> 1	NC(=O)c1cnc(Nc2ccc(N3CCOCC3)cc2)c(Cl)c1NCc1cccc(F)c1 [Example 377, 5-chloro-4-(3-fluorobenzylamino)-6-(4-morpholinophenylamino)nicotinamide]
0.001 to 0.01	0.1 to 1	> 1	0.1 to 1	N#CCOc1ccc(Nc2cc(NCc3ccccc3)c(C(N)=O)cn2)cc1 [Example 384]
0.001 to 0.01	0.1 to 1	0.1 to 1	0.1 to 1	N#CCCc1ccc(Nc2cc(NCc3ccccc3)c(C(N)=O)cn2)cc1 [Example 386]
